In article PMC12615753, “Glutathione as a taste modulator: molecular mechanisms of interaction with umami and sweet taste receptors” (Food Chemistry: Molecular Sciences, 2025):
“Also recorded” adds a separate entry of the source.

Molecular target: T1, hTAS1R1 D192F/rTAS1R3 (UniProt Q7RTX1+Q923K1, D192F)
T1 construct: The cDNA coding region of rTAS1R3 was synthesized with optimized-codon usage for human expression; expressed in transfected cells; host or cells: HEK293T/17
T1 sequence (Q7RTX1 21-841 D192F): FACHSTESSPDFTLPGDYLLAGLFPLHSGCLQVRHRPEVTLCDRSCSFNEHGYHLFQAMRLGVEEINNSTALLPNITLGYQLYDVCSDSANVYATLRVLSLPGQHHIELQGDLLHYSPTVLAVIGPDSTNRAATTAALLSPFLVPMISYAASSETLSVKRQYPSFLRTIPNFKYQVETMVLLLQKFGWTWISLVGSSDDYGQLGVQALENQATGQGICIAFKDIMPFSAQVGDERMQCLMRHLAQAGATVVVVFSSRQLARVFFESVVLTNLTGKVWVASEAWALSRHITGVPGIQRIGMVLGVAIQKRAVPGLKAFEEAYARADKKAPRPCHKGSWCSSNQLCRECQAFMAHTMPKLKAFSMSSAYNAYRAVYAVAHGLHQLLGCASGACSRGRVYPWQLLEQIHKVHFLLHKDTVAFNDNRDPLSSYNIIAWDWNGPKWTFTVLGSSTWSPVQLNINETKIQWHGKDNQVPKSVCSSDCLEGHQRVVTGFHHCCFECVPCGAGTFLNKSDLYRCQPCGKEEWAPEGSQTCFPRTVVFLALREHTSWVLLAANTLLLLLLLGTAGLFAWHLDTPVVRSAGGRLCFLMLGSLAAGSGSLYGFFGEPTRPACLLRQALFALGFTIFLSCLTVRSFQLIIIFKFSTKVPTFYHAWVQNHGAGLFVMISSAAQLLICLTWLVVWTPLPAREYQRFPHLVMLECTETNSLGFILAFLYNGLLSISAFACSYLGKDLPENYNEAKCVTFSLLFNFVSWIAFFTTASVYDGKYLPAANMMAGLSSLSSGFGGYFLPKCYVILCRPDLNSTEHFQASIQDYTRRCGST
T1 sequence (Q923K1 21-858): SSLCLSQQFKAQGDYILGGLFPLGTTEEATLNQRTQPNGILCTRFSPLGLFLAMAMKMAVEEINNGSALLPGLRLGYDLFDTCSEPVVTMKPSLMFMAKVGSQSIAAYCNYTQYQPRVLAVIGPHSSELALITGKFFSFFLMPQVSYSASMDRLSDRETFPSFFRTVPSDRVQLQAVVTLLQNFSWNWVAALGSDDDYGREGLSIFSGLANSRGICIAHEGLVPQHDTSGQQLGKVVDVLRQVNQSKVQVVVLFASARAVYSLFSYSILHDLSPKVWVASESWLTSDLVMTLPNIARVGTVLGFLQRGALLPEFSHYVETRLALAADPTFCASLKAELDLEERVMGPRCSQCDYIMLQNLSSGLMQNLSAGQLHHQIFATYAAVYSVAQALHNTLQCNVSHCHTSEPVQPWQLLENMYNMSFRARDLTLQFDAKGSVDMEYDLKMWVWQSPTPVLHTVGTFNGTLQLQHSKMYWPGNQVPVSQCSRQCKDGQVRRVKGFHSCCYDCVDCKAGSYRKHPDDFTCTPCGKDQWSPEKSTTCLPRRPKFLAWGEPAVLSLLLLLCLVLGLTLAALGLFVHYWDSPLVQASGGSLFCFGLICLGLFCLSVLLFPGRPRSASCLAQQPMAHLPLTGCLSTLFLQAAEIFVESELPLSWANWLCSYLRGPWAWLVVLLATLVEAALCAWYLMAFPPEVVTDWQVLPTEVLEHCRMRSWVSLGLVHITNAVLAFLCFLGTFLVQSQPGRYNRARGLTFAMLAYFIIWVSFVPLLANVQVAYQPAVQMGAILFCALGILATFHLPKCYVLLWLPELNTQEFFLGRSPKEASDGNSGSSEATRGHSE
Test: Calcium assay, hTAS1R1 mutant co-expressed with rTAS1R3
Format: cell-based, human, rat
Conditions: for response to the agonist alone, vs WT: D192F
From the text: Chimeric Gα proteins, such as Gα16Gust44, Gα16Gi3 or Gα15i2, are widely used in the functional expression of TAS1R receptors ([Backes et al., 2015]; [Suess et al., 2015]; [Toda et al., 2021], [Toda et al., 2013], [Toda et al., 2018]; [Zhang et al., 2008]). Chimeric Gα15i2 (([Toda et al., 2013]), Supplementary data) was generated by replacing the last five residues of the C-terminal tail of rat Gα15i2 (EINLL) (UniProt number G3V6N8; https://www.uniprot.org/uniprot/) with the counterpart sequence from human GNAI2 (DCGLF) (UniProt number P04899-1) and cloning into the pcDNA3.1/Hygro vector (Invitrogen, Thermo Fisher Scientific, Illkirch, France) between the HindIII and NotI restriction sites, resulting in the plasmid pcDNA3.1-Gα15i2. Chimeric Gα16Gust44 construct have already been reported ([Raliou et al., 2011]). Briefly, Gα16Gust44 was generated by replacing the C-terminal of Gα16 with the C-terminal 44 residues of gustducin. As previously described, hTAS1R1 was amplified from human fungiform papillae cDNA and cloned and inserted into pcDNA3 (Invitrogen), generating pcDNA3-TAS1R1-WT (wild-type) ([Raliou et al., 2011]). […] The cDNA coding region of rTAS1R3 was synthesized with optimized-codon usage for human expression (Genewiz) and was cloned and inserted into the mammalian pcDNA4/myc-HisA (Invitrogen) expression vector between the EcoRI and NotI restriction sites, resulting in the plasmid pcDNA4-rTAS1R3. […] The sequence integrity of all the plasmid constructs was verified via automated DNA sequencing (Genewiz).
The hTAS1R1 mutants were co-expressed with the rTAS1R3 subunit in HEK293 cells. […] As a control, the functionality of the mutated receptors was checked after stimulation with S807 (Fig. S8), which interacts with TAS1R1-TMD ([Zhang et al., 2008]).

Row | SMILES | EC50 | response to the agonist alone, vs WT
1 | N[C@@H](CCC(=O)N[C@@H](CS)C(=O)NCC(=O)O)C(=O)O [GSH, γ-L-glutamyl-L-cysteinyl-glycine] | > 30 mM | fully abolished; also recorded: completely abolished
2 | N[C@@H](CCC(=O)O)C(=O)O [L-Glu, L-glutamic acid, reference compound] |  | completely suppressed; also recorded: completely abolished
3 | CCCC(CCC)NC(=O)c1ccc2c(c1)OCO2 [S807, N-(heptan-4-yl)benzo[d][1,3]dioxole-5-carboxamide, reference compound] |  | increased
